# Results as given in patent US20230020401A1, “METABOLIC REPROGRAMMING OF IMMUNE CELLS TO ENHANCE THE EFFICACY OF PROPHYLACTIC AND T[…]” (priority 2019, published 2023).
# Legend:
# [1] = tested on: plasma cells (CD138+ cells); test: Plasma cell (PC) differentiation in vitro; format: cell-based
# Procedure: Cells were treated either with Etomoxir to prevent fatty acid oxidation or with 2-deoxy-D-glucose (2DG) to […] to see the effect of fatty acid oxidation in plasma cell differentiation.
# [2] = tested on: IgG1 memory B cells; test: SRBC immunization, Mdivi-1 once on Day 3, analysis on day 11 (IgG1 memory and memory precursor cells, antibodies); format: in vivo, mice
# Procedure: Mice were immunized with Sheep red blood cells (SRBC) to mount an immune response. One group was treated with Mdivi-1 once at the dose of 2.5 mg/kg on Day 3. Blood samples of all groups were analyzed on day 11 after initial immunization.
# FIGS. 21A-B show increased IgG1 memory cell population upon Mdivi-1 treatment. […] show flow plots showing IgG1 population and gating memory B cells in immunized control and Mdivi-1 treated mice.
# FIG. 22A show two flow plots showing population of SRBC-specific IgG1 memory precursors in control and Mdivi-1 treated group (right upper boxes). FIG. 22B is the graph showing frequencies of IgG1 memory precursors.
# Sera was incubated with SRBC to bind all the SRBC specific antibody, followed by staining SRBCs with anti-IgG1 to determine the SRBC specific IgG1 in control and Mdivi-1 treated group of mice.
# [3] = tested on: SARS-CoV2 specific cells; test: SARS-CoV2 S1 subunit vaccine with Mdivi-1 (SBP-AS08) in mice; format: in vivo
# [4] = tested on: IgG1 memory cells; test: SRBC immunization Day 0 with SBP-AS08 on day 2, IgG1 memory cells; format: in vivo, mice; conditions: SRBC with SBP-AS08 vs SRBC alone
# Procedure: Seven mice were immunized with SRBC Day 0, and further injected with SBP-AS08 on day 2. Then, serum from immunized mice was incubated with SRBC and stained by anti-mouse IgG1 antibody to detect the SRBC specific IgG1 antibody. FIG. 12A is the graph showing absolute number of IgG1 memory cells in SRBC alone and SRBC with SBP-A508, indicating the increase of IgG1 memory cells in the mice injected with SBP-AS08.
# [5] = tested on: IgG1 memory cells; test: Effect of Mdivi-1 on IgG1 memory cells formation 6 months post immunization; format: in vivo
# [6] = tested on: H1N1; test: Flu vaccine with Mdivi-1, lethal H1N1 challenge; format: in vivo, mice
# Procedure: 4 groups of ten mice each (6-8 weeks) were vaccinated intra-nasally with flu vaccine (vaccine group and vaccine+Mdivi-1 (SBP AS-08) group) or saline (No Vaccine group). In day 3, vaccine+Mdivi-1 (SBP AS-08) group and Mdivi-1 only group were administered with 2.5 mg/kg dose of Mdivi-1 (SBP AS-08), while all other groups were administered with saline. In day 60, all groups were administered with a lethal dose of H1N1. FIG. 28A is an individual dot graph showing the weight of mice in each group post lethal H1N1 viral infection. For each time point, dot or a group of dots from left to right represent the sample fo no vaccine, SBP-AS08 only, vaccine only, and vaccine and SBP-AS08, respectively. […] Mice were sacrificed if the weight reached 70% of their original weight or appeared very sick. N=10 per group, *p=0.04, ** p=0.001, ***p=0.0001, ****p<0.0001.
# Mice from each group were also sacrificed on Day 7 post lethal influenza infection.
# [7] = tested on: pseudo SARS-CoV2 virus; format: cell-based, human
# [8] = tested on: mouse pancreatic cancer cells; test: Neo-antigen vaccine with SBP-AS08 in mouse pancreatic cancer model; format: in vivo, mice; conditions: Kaplan Meier
# Procedure: The effect of Mdivi-1 (SBP-AS08) in boosting immunity can be extrapolated to other diseases related to specific immune response (e.g., cancer, etc.). FIG. 36A is a schematic of an experimental layout to test the effect of Mdivi-1 (SBP-AS08) in mouse cancer model. In this experiment, mouse pancreatic cancer cell line lysate was used as the vaccine. 200,000 mouse pancreatic cancer cells were injected in 10 (C57/B6) mice per group via tail vein. Effectiveness of the vaccine was tested by analyzing the metastasis of the cancer cells from the pancreas to lungs (FIG. 36B). Lungs tissues were collected from group of vaccine and vaccine with SBP-AS08 on Day 22 post injections. Two more groups with no treatment and only SBP-AS08 treatment were also included in the analysis.
# FIG. 37A and FIG. 37B show Kaplan Meier survival curve of mice that are unvaccinated, treated with SBP-AS08 only, treated with vaccine, or treated with vaccine and SBP-AS08.
# [9] = tested on: IgM and IgG1 cells; test: Confocal imaging of mitochondria organization upon BCR stimulation; format: cell-based; conditions: BCR+Mdivi-1
# [10] = tested on: SRBC specific antibody; test: SRBC immunization in older age mice with Mdivi-1; format: in vivo; conditions: 14-24 months old mice; 2.5 mg/kg day 3; day 11
# Procedure: 2 groups of eight mice each (14-24 months old age) were immunized intraperitoneally with sheep red blood cells (SRBC). In day 3, one group (SRBC group) was administered with saline, and another group (SRBC+Mdivi-1 (SBP-AS08)) was administered with 2.5 mg/kg dose of Mdivi-1 (SBP AS-08). FIG. 30B and FIG. 30C show scatter plots of SRBC specific anti-IgM antibody or SRBC specific anti-IgG1 antibody of two groups in day 11 after administration of SRBC, respectively. Each dot represents each individual mice in each group.
# [11] = tested on: NP specific B cells; test: NP-CGG immunization with Mdivi-1 (day 2, 5, 8) and rechallenge on day 61; format: in vivo, mice
# Procedure: FIG. 12C is a schematic of an experimental design of multiple injections of Mdivi-1 (SBP-A508) for studying NP-CGG immunization along with or without SBP-A508 treatment. As shown, mice were injected with NP-CGG on day 0, and further injected with SBP-A508 on day 2, Day 5, and Day 8 at a dose of 2.5 mg/kg each. Then, a boost immunization (rechallenge) was given on day 61. Mice were bleed on day 82 for further analysis. FIG. 12D is a bar graph in log scale showing the NP-2 specific antibody production measured by ELISA in control and SBP-AS08 treated group upon rechallenge with NP-CGG in PBS on Day 61. Mice were bleed on Days 0, 60, 68, 75 and 82.
# FIG. 13A depicts an experimental design for studying NP-CGG immunization along with or without Mdivi-1 treatment. Briefly, Mdivi-1 treatments were performed at least three times after immunization (day 2, day 5, and day 8), and the blood samples from the subject were analyzed at 2 months after the immunization. […] Mice were bleed on days 0, 60, 68, 75 and 82.
# Mice were immunized with NP-CGG and treated with Mdivi-1 at least three times after immunization (day 2, day 5, and day 8). Then, a boost immunization (rechallenge) was given on day 61. Mice were bleed on day 82 for further analysis. […] Mice were bleed on days 0, 60, 68, 75 and 82 after immunization with NP-CGG. […] As shown in FIGS. 17A-B, Mdivi-1 treated mice replenished their memory B cell pool.
# [12] = tested on: immune cells (GC B cells, memory B cells, non-B cells); test: Mitochondrial mass of immune cells in vivo after SRBC immunization with SBP-AS08; design: species or system mice
# Procedure: Seven mice each in two group were immunized with SRBC on Day 0 and Day 4. One group on Day 3 and Day 7 were given SBP-A508 at 2.5 mg/kg. GC B cells were MACS and stained with Tomm20 (red) to stain mitochondria and DAPI to stain nucleus on Day 15. Cells were imaged using confocal microscope.
# In another experiment, mice each in two group were immunized with SRBC on Day 0 and Day 5. One group of mice was also injected with SBP-A508 on Day 7 and Day 10. […] Day 15 post immunization, mice were sacrificed and spleens were harvested. Cells were incubated in Mitotracker red dye 200 nM per ml of RPMI for 15 mins at culture conditions. Cells were further stained with surface antibodies B220, CD38, Fas to determine B cells, Germinal Center and non-B cells populations.
# [13] = tested on: T follicular helper (TFh) cells; test: T follicular helper (TFh) cells in Mdivi-1 treated mice; format: in vivo
# Excerpt: […] Dot plots shown in FIG. 18B show the frequencies of TFh cells. […] Similarly, FIGS. 23A-B show flow plots (FIG. 23A) and graph (FIG. 23B) displaying enrichment of T follicular helper cells in mice treated with Mdivi-1.
# [14] = tested on: IgG1 GC B cells; test: SRBC immunization of mice with Mdivi-1 treatment (GC and memory B cells); format: in vivo
# [15] = single injection 2.5mg/kg Day 3, Day 15
# [16] = 2.5 mg/kg Day 3 and Day 7, mitotracker red MFI, Day 15
# [17] = injected Day 7 and Day 10, spleen Day 15, Mitotracker red
# [18] = Mdivi-1 two days post immunization
smiles,measurement,setting,value
"O=CC[C@@H](O)[C@H](O)[C@H](O)CO [2DG, 2-deoxy-D-glucose]",number of CD138+ cells,[1],substantially decreased
CCOC(=O)[C@@]1(CCCCCCOc2ccc(Cl)cc2)CO1 [Etomoxir],number of CD138+ cells,[1],substantially increased
"COc1cc(-n2c(=S)[nH]c3ccccc3c2=O)c(Cl)cc1Cl [Mdivi-1, 3-(2,4-dichloro-5-methoxyphenyl)-2,3-dihydro-2-thioxo-4(1H)-quinazolinone]",IgG1+CD38+ cell population (IgG1 memory B cells),"[2]; 2.5 mg/kg once on Day 3, day 11",substantially increased
same,frequencies of SRBC-specific IgG1 memory precursors,[2]; FIG. 19,significantly increased
same,IgG1+CD38+ cell population (memory precursors cells),[2]; FIGS. 22A-B,substantially increased
same,efficacy of immunization (total IgG and SRBC specific IgG antibodies),[2]; FIGS. 24A-B,increases the efficacy of immunization
same,efficacy of the vaccine after rechallenge (S1 specific antibody titers in serum),"[3]; 2.5 mg/kg Day 2 and Day 5, boost day 30, Day 37 and Day 44",enhances the efficacy
same,number of marker-specific B cells,"[3]; injections Day 2 and Day 5, Day 15, vs vaccine alone",further increased
same,number of SARS-CoV2-specific cells,[3]; [15],increased
same,number of SARS-CoV2-specific memory B cells,[3]; [15],increased
same,number of anti-SARS-CoV2 antibody producing cells,[3]; [15],increased
same,number of splenocytes,[3]; [15],increased
same,absolute number of IgG1 memory cells,[4],increase
same,immune memory formation (IgG1 expressing memory B cells),[5],facilitates immune memory formation
same,protection against fatal influenza infection (event free survival),"[6]; 2.5 mg/kg day 3 after flu vaccine, lethal H1N1 day 60",boosts the protection
same,disease progression post H1N1 (lung histology),"[6]; Day 7 post lethal influenza infection, H&E",reduces the disease progression
same,% of neutralizing antibody titers (SARs-Cov2 pseudovirus neutralization),[7],higher
same,survival of tumor bearing mice,[8],increases the survival
same,mitochondrial fission in BCR treated cells,[9],prevents the mitochondrial fission
same,SRBC specific anti-IgG1 antibody,[10],substantially increased
same,frequency of NP specific B cells,"[11]; 2 months after immunization, vs control",substantial increase
same,memory B cell pool,[11]; after rechallenge,replenished
same,number of NP specific IgG1 memory cells,"[11]; after rechallenge, vs control",significantly increased
same,number of NP specific immune cells,"[11]; after rechallenge, vs control",significantly increased
same,antigen specific antibody generation after antigen boost,[11]; rechallenge with NP-CGG in PBS on Day 61,substantially increased
same,mice showing secondary response upon recall,"[11]; upon recall, control group 33%",100%
same,NP specific antibody production measured by ELISA,[11]; vs control,increased
same,mitochondrial mass of germinal center B cells,[12]; [16],enhances
same,mitochondrial mass of memory B cells,[12]; [16],enhances
same,mitochondrial mass of B cells,[12]; [17],significantly increased
same,mitochondrial mass of non-B cells,[12]; [17],significantly increased
same,frequency of TFh cells,"[13]; FIG. 18B, vs control",substantially increased
same,T follicular helper cells,[13]; FIGS. 23A-B,enrichment
same,PD-1 molecule expression on T follicular helper cells (median fluorescent intensity),[13]; vs nontreated control group,higher
same,frequencies of GC B cells,"[14]; Mdivi-1 twice, each 3 days after SRBC, vs control",increased
same,IgG1 memory B cells,[14]; [18],significant increase
same,longevity of IgG1 memory B cells,[14]; [18],significant increase
same,mitochondrial mass of IgG1 memory B cells,[14]; [18],significant increase
same,mitochondrial mass of IgG1 GC B cells,[14]; Mitotracker green MFI,enhances
same,IgG1 B cell loss through mitochondrial fragmentation and apoptosis,[14]; SRBC immunization,prevents IgG1 B cell loss
same,survival of IgG1 GC B cells,"[14]; active caspase-3, flow cytometry",enhances
